Earlier results, collected in patent publication US20250319149A1, “COMPOSITIONS FOR TREATING IMBALANCES OF THE GUT MICROBIOTA” (Provexis Natural Products Limited, priority 2022, published 2025).

Test system: TMAO-induced atherosclerosis
Conditions: mice; Chen et al.

For `Oc1ccc(C=Cc2cc(O)cc(O)c2)cc1` [resveratrol], the TMAO-induced atherosclerosis is given as “attenuated”.
